Laboratory results reported in publication PMC3588144 (Molecular cancer therapeutics, 2012).

Legend:
[1] = tolerability / maximum-tolerated dose; type: in vivo, mice; conditions: for maximum observed body weight loss: 14 days, male Balb/C nude mice
[2] = tested on: PC3 xenograft
[3] = pharmacokinetics after a single oral dose; set-up: species or system mice; conditions: mouse, in vivo
[4] = tested on: pS6 and pAkt in COLO-205 tumor tissue; assay: pharmacodynamic markers in COLO-205 tumors; type: in vivo, mice; conditions: 25 mg/kg, 1h after the last dose on day 17
[5] = tested on: pAkt(S473) and pS6(S240/244) in PC3 tumor tissue; conditions: mouse, in vivo
[6] = tested on: MV4-11 cells (FLT3-ITD); type: cell-based, human; conditions: 100 nmol/L for 3 hours
[7] = tested on: NCI-N87 xenograft; assay: HER2 overexpressing gastric NCI-N87 xenograft model; conditions: 25 mg/kg i.v.; not statistically significant
[8] = tested on: 436 cancer cell lines; type: cell-based, human

Question: What does the source list for `Cc1nc2c(-c3cnc(N)nc3)nc(N3CCOCC3)nc2n1C(C)C` [VS-5584, 5-(9-isopropyl-8-methyl-2-morpholin-4-yl-9H-purin-6-yl)-pyrimidin-2-ylamine]?
Answer: maximum observed body weight loss ([1]; 25 mg/kg once daily, data not shown): 3.1%; maximum observed body weight loss ([1]; 35 mg/kg once daily, data not shown): 13.9%; peripheral blood cell counts ([1]; 25 and 35 mg/kg, data not shown): remained within normal levels without significant changes; tolerability of a single dose ([1]; single dose up to 100 mg/kg): well tolerated; weight loss (mean) ([2]; 11 and 25 mg/kg, day 27): 4.7%; Tmax [3]: 0.9 h; half-life [3]: 10 h; reduction of pAkt in tumor [4]: 85%; reduction of pS6 in tumor [4]: 95%; pAkt(S473) blocked [5]: ≥ 90%; pS6(S240/244) blocked [5]: ≥ 90%

Question: With `CO[C@H]1C[C@@H]2CC[C@@H](C)[C@@](O)(O2)C(=O)C(=O)N2CCCC[C@H]2C(=O)O[C@H]([C@H](C)C[C@@H]2CC[C@@H](OCCO)[C@H](OC)C2)CC(=O)[C@H](C)/C=C(\C)[C@@H](O)[C@@H](OC)C(=O)[C@H](C)C[C@H](C)/C=C/C=C/C=C/1C` [Everolimus, everolimus, reference compound] as the compound, how does the “tumor growth inhibition (TGI)” value ([2]; 5 mg/kg p.o. daily, 28 days) read?
Answer: 133%

Question: What about the “inhibition of phosphorylation of Akt” value [6] of the same compound?
Answer: not able to inhibit

Question: Which tumor growth inhibition [7] does the source give for `O=c1[nH]cc(F)c(=O)[nH]1` [5-FU, 5-fluorouracil] here?
Answer: 32%

Question: With `CN(C)C/C=C/C(=O)Nc1cc2c(Nc3ccc(F)c(Cl)c3)ncnc2cc1O[C@H]1CCOC1` [BIBW2992] as the compound, how does the “sensitivity of ERBB2-amplified cells with coincident PIK3CA mutations” value [8] read?
Answer: did not observe increased sensitivity
